Where “and” joins values, the source holds several entries; their conditions need not be identical. Equal entries are not always repeated.
How the values were obtained:
[1] = test system: U-87MG human glioblastoma xenografted into nude mice; test: Experiment 1: growth of s.c. U-87MG xenografts in nude mice; assay type: in vivo, human tumour in male athymic nude mice; conditions: for Final tumour volume / Final tumour volume, % inhibition / Tumour weight, % inhibition / Tumour doubling time: 150 nmol kg^-1 i.v. days 1, 8, 15, 22; for Final tumour volume / Final tumour volume, % inhibition / Tumour weight, % inhibition: day 29; for Final tumour volume / Tumour doubling time: mean±s.e.; for Final tumour volume: control 3201.5±375.7; for Final tumour volume, % inhibition / Tumour weight, % inhibition: vs control; for Antitumour effect / Tumour doubling time: experiment 1; for Antitumour effect: 150 nmol kg^-1 i.v.; for Tumour doubling time: day 1 to 29, control 4.5±0.2
Method: Human glioblastoma cell line U-87MG was obtained from American Type Culture Collection (Manassas, VA, USA) and cultured as described ([Pinski et al, 1994]). Male athymic (Ncr nu/nu) nude mice, approximately 6-weeks-old on arrival, were obtained from the National Cancer Institute (Frederick Cancer Research and Development Center, Frederick, MD, USA), and housed in laminar air-flow cabinets under pathogen-free conditions with a 12 h light/12 h dark schedule, and fed autoclaved standard chow and water ad libitum. Xenografts were initiated by s.c. injection of 12×10^6 U-87MG cells into the right flanks of five male nude mice. Tumours resulting after 2 weeks were aseptically dissected, mechanically minced, and 3-mm^3 pieces of tumour tissue were transplanted s.c. with a trocar needle. The take rate was 100%. All experiments were performed in accordance with institutional ethical guidelines of animal care and were essentially in agreement with [UKCCCR guidelines (1998)] for the welfare of animals in experimental neoplasia.
Experiment 1 was started when tumours had grown to approximately 40 mm^3 in volume. Animals were randomly divided into three treatment groups: group 1(10 mice), control, which received vehicle solution; group 2 (10 mice), injected with cytotoxic radical AN-201; group 3 (11 mice), given cytotoxic BN analogue AN-215. Cytotoxic compounds were injected through the jugular vein at a dose of 150 nmol kg^−1 of body weight (BW) on days 1, 8, 15 and 22. Tumour volume (length×width×height×0.5236) and BW were measured twice a week. The experiment was terminated on day 29. […] Tumours were excised and weighed. Tumour specimens were snap-frozen and stored at −70°C until extraction of RNA for reverse transcription-polymerase chain reaction (RT–PCR). Tumour volume doubling time was calculated between day 1 and 29 using the formula: […]
as described by [Smolev et al (1977)].
Data are expressed as mean±s.e. Differences between mean values were evaluated by two-tailed Student's t-test, P<0.05 being considered significant.

[2] = test system: hNMBR/BRS-2; test: RT-PCR of hNMBR/BRS-2 mRNA in U-87MG tumours; assay type: in vivo, human; conditions: experiment 1 tumours; normalised vs hGAPDH; control 7.6±3.5
Method: Total RNA was extracted from frozen tissue samples by using RNAzolB (Tel-Test, Friendswood, TX, USA) according to the manufacturer's instructions. Concentrations of total RNA were calculated by measuring the OD260 value. Total RNA (4 μg) was subjected to electrophoresis for 2 h at 70 V in 10 μl of sample buffer containing 1× MOPS buffer (pH 6.5), 6.4% formaldehyde, 48% deionized formamide, 0.25% w v^−1 bromophenol blue, 0.05% glycerol and 0.25 mg ml^−1 ethidium bromide. The RNA gel contained 1.4% agarose, 1×MOPS (pH 6.5) and 1.73% formaldehyde.
The RT–PCR was performed using Gene Amp RNA Core Kit (Perkin-Elmer, Foster City, CA, USA). To avoid genomic DNA contamination, all samples were subjected to DNase digestion before RT–PCR. RNA (2 μg) was treated with 0.3 unit of RQ1 RNase-free DNase (Promega, Madison, WI, USA) at 37°C for 30 min in 19 μl of mixture containing 5 mM MgCl2, 1× PCR buffer, 1 mM of each dNTP, 1 unit RNase inhibitor and 2.5 μM random hexamers. The reaction was terminated by enzyme denaturation at 99°C for 5 min. […]
The PCR amplification of the cDNAs for human glyceraldehyde-3-phosphate dehydrogenase (hGAPDH), GRP receptor (hGRPR, BRS-1) and neuromedin-B receptor (hNMBR, BRS-2) was performed as follows. […] The number of cycles was determined in preliminary experiments to be within the exponential range of PCR amplification.

[3] = cited from earlier work; for BW change: accompanying WBC decrease, nude mice bearing PC-3; for Reduction in WBC count: after the final injection, nude mice bearing PC-3 human prostate cancers
Method: In our previous study ([Plonowski et al, 2000]) we reported that after the final injection of AN-215, AN-201 or the mixture of AN-201 and […] there was an approximate 50% reduction in WBC count in nude mice bearing PC-3 human prostate cancers. […] In the present study no measurements of WBC were carried out. Instead, the assessment of toxicity was based on changes in BW and mortality which indicated, in both experiments, that targeted cytotoxic BN analogue AN-215 is not toxic (Table 2). In experiment 1, two of 10 animals (20%) ...

Question: Which results are given for “Gln-Trp-Ala-Val-Gly-His-Leu-ψ(CH2-NH)-Leu-NH2 [AN-215]”?
Answer: Final tumour volume [1]: 971.5±227.9 mm^3; Final tumour volume, % inhibition [1]: 69.6%; Tumour weight, % inhibition [1]: 64.6%; Antitumour effect [1]: strong tumour growth inhibition; Tumour doubling time [1]: 8.18±1.8 days and 8.2±1.8 days and 8.2±1.8^c days; hNMBR/BRS-2 mRNA expression [2]: 3.3±1.0 a.u.; BW change ([3]; ref Plonowski et al, 2000): transient decrease in BW; Reduction in WBC count ([3]; ref Plonowski et al, 2000): ~50%; Tolerance with carboxylesterase inhibited ([3]; nude mice, ref Nagy et al, 2000, Plonowski et al): significantly higher tolerance; Efficacy with suppressed esterase activity ([3]; nude mice, ref Plonowski et al, 2000): highly efficacious

Question: Which Final tumour volume [1] does the source give for `COc1cccc2c1C(=O)c1c(O)c3c(c(O)c1C2=O)C[C@@](O)(C(=O)CO)C[C@@H]3O[C@H]1C[C@H](N2C=CCC2)[C@H](O)[C@H](C)O1` [AN-201, 2-pyrrolino-doxorubicin] here?
Answer: 2353.7±506.7 mm^3

Question: What about the “Final tumour volume, % inhibition” value [1] of the same molecule?
Answer: 26%

Question: What about the “Tumour weight, % inhibition” value [1] of the same molecule?
Answer: 13.2%

Question: What about the “Antitumour effect” value [1] of the same molecule?
Answer: ineffective

Question: And the Tumour doubling time [1]?
Answer: 5.9 ± 1.4 days

Question: And the “hNMBR/BRS-2 mRNA expression” value [2]?
Answer: 10.9±3.6 a.u.

Question: What about the “BW change” value ([3]; ref Plonowski et al, 2000) of the same molecule?
Answer: transient decrease in BW

Question: What about the “Reduction in WBC count” value ([3]; ref Plonowski et al, 2000) of the same molecule?
Answer: ~50%

Reference: publication PMC2375353, “Effective treatment of experimental U-87MG human glioblastoma in nude mice with a targeted cytotoxic bombesin analogue, AN-215” (British Journal of Cancer, 2002)
